The text below walks through data of US20060270607A1, “Pharmaceutical combinations” (priority 1999, published 2006).

Assay [1] deals with ADP-induced platelet aggregation. Nature of the assay: ADP-induced platelet aggregation, whole blood impedance aggregometry. It counts as cell-based. The conditions noted are these: human blood ex vivo; for Aggregation, ADP 10 μM, −compound A: n = 7-8. How it is done: Human Blood In Vitro—Compound A and Clopidogrel
Compound A (500 nM final concentration) was added to blood from healthy human volunteers receiving clopidogrel (Sanofi-Winthrop, 75 mg/day for 11 days). ADP-induced platelet aggregation (+/−compound A) was measured using whole blood impedance aggregometry.

The subject of assay [2] is platelet P-selectin expression. Nature of the assay: ADP-induced platelet P-selectin expression in human washed platelets. Format: cell-based. The note with it: ADP 10 μM, GR144053 10 μM, compound B 10 nM, Mean ± se (n = 3), Control 13.1 ± 3.3. How it is done: P-selectin expression on the platelet membrane surface plays an important role in platelet-leukocyte-conjugate formation and there is increasing evidence that such interactions play an important role in both acute thrombosis and in the inflammatory aetiology of progressive atheroscerosis. The effect of a P2T-receptor antagonist (compound B) on ADP (10 μM)-induced platelet P-selectin expression was investigated in human washed platelets. The effect of compound B (10 nM) was compared with that of the GPIIb/IIIa antagonist, GR144053 (10 μM, Foster et al (1993) Thromb Haemostas; 69(6):559, synthesized in AstraZeneca R & D, Charnwood). These concentrations are 4 (compound B)—and 600 (GR144053)—fold higher than the respective IC50 values for inhibition of ADP-induced platelet aggregation in this system.

For the compound `COC(=O)[C@H](c1ccccc1Cl)N1CCc2sccc2C1` [clopidogrel], the “Inhibition of the ADP response (in words)” value in assay [1] (clopidogrel alone, 75 mg/day for 11 days) is on record as “slowly developing, incomplete inhibition”. For the same compound, the “Aggregation, ADP 10 μM, −compound A” value was 13.8 ± 2.3 ohms in assay [1] (oral clopidogrel 75 mg/day for 1 day, mean ± SD); 11.8 ± 3.4 ohms in assay [1] (oral clopidogrel 75 mg/day for 2 days, mean ± SD); 10.2 ± 4.5 ohms in assay [1] (oral clopidogrel 75 mg/day for 3 days, mean ± SD); 8.2 ± 4.4 ohms in assay [1] (oral clopidogrel 75 mg/day for 11 days, mean ± SD). Also, the “Aggregation, ADP 300 μM, −compound A” value was 13.9^(n=1) ohms in assay [1] (oral clopidogrel 75 mg/day for 3 days, n=1) and 11.4 ± 5.2^(n=3) ohms in assay [1] (oral clopidogrel 75 mg/day for 11 days, mean ± SD, n=3).

For the compound `Cl.Cl.Cl.N=C(N)c1ccc(N2CCN(C3CCN(CC(=O)O)CC3)CC2)cc1` [GR144053], the “P-selectin expression (% positive cells)” value in assay [2] is 17.7 ± 1.7 % positive cells.
